In patent US8247211B2, “Glycopeptide antibiotics” (American Cyanamid Company, priority 2001, dated 2012):

What was measured:
Test in all cases: In vitro antibacterial evaluation: minimum inhibitory concentration (MIC), broth dilution method
Type in all cases: cell-based
Staphylococcus sp. = system: Staphylococcus sp.
Summary of the method: (§1)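 MIC read as lowest drug level preventing visible growth. Organisms at 5×10^5 CFU/mL were exposed to a 64-0.06 μg/mL dilution series in Muller-Hinton II […] following NCCLS broth dilution standard M7-A2.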

Escherichia coli = conditions: 18 hours at 35° C.
Summary of the method: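 Using Muller-Hinton II […] and an inoculum of 5×10^5 CFU/mL, antibiotic dilutions from 64 down to 0.06 μg/mL were tested following NCCLS M7-A2. The MIC is the lowest concentration inhibiting growth, including in methicillin-, penicillin- or vancomycin-resistant clinical isolates.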

Streptococcus sp. = conditions: 18 hours at 35° C.
Summary of the method: as §1

Enterococcus sp. = conditions: 18 hours at 35° C.
Summary of the method: as §1

[1] = Streptococcus agalactiae (GC 4564)
[2] = Streptococcus pneumoniae (ATCC 6301)
[3] = Streptococcus pneumoniae (GC 1894)
[4] = Streptococcus pneumoniae (GC 4565)
[5] = Streptococcus pyogenes (GC 4563)
[6] = broth dilution, inoculum 5×10^5 CFU/mL
[7] = Enterococcus faecalis (ATCC 29212)
[8] = Enterococcus faecalis (GC 2242)
[9] = Enterococcus faecalis (GC 2691)
[10] = Enterococcus faecalis (GC 3059)
[11] = Enterococcus faecalis (GC 4552)
[12] = Enterococcus faecalis (GC 4553)
[13] = Enterococcus faecalis (GC 4554)
[14] = Enterococcus faecalis (GC 6189)

CC(c1ccccc1)C1NC(=O)CNC(=O)C(CO)NC(=O)C(C(O)C2CNC(=N)N2C2OC(CO)C(O)C(O)C2O)NC(=O)C(C(O)C2CNC(=N)N2)NC(=O)C(Cc2ccc(OC3OC(CO)C(OC4OC(CO)C(OCC=Cc5ccc(N(C)C)cc5)C(O)C4O)C(O)C3O)cc2)NC1=O (stereo not shown) [Example 243a]
16 µg/mL: MIC Coagulase Negative Staphylococcus (GC 4549) (Staphylococcus sp.; Coagulase Negative Staphylococcus (GC 4549), 18 hours at 35° C.) | MIC Coagulase Negative Staphylococcus (GC 6257) (Staphylococcus sp.; Coagulase Negative Staphylococcus (GC 6257), 18 hours at 35° C.) | MIC Streptococcus agalactiae (GC 4564) (Streptococcus sp.; [1]) | MIC Streptococcus pneumoniae (ATCC 6301) (Streptococcus sp.; [2]) | MIC Streptococcus agalactiae (GC 4564) (Streptococcus sp.; [6]) | MIC Streptococcus pneumoniae (ATCC 6301) (Streptococcus sp.; [6]) | MIC Enterococcus avium (GC 4558) (Enterococcus sp.; Enterococcus avium (GC 4558)) | MIC Enterococcus faecium (GC 4557) (Enterococcus sp.; Enterococcus faecium (GC 4557))
1 µg/mL: MIC Streptococcus pneumoniae (GC 1894) (Streptococcus sp.; [3]) | MIC Streptococcus pneumoniae (GC 1894) (Streptococcus sp.; [6])
>64 µg/mL: MIC Escherichia coli (ATCC 25922) (Escherichia coli) | MIC Escherichia coli (GC 4559) (Escherichia coli)
8 µg/mL: MIC Streptococcus pyogenes (GC 4563) (Streptococcus sp.; [5]) | MIC Streptococcus pyogenes (GC 4563) (Streptococcus sp.; [6])
2 µg/mL: MIC Streptococcus pneumoniae (GC 4565) (Streptococcus sp.; [4]) | MIC Streptococcus pneumoniae (GC 4565) (Streptococcus sp.; [6])
32 µg/mL: MIC Coagulase Negative Staphylococcus (GC 4547) (Staphylococcus sp.; Coagulase Negative Staphylococcus (GC 4547), 18 hours at 35° C.) | MIC Coagulase Negative Staphylococcus (GC 4548) (Staphylococcus sp.; Coagulase Negative Staphylococcus (GC 4548), 18 hours at 35° C.) | MIC Coagulase Negative Staphylococcus (GC 4551) (Staphylococcus sp.; Coagulase Negative Staphylococcus (GC 4551), 18 hours at 35° C.) | MIC Staphylococcus aureus (ATCC 29213) (Staphylococcus sp.; Staphylococcus aureus (ATCC 29213), 18 hours at 35° C.) | MIC Staphylococcus aureus (GC 1131) (Staphylococcus sp.; Staphylococcus aureus (GC 1131), 18 hours at 35° C.) | MIC Staphylococcus aureus (GC 3051) (Staphylococcus sp.; Staphylococcus aureus (GC 3051), 18 hours at 35° C.) | MIC Staphylococcus aureus (GC 3053) (Staphylococcus sp.; Staphylococcus aureus (GC 3053), 18 hours at 35° C.) | MIC Staphylococcus aureus (GC 4541) (Staphylococcus sp.; Staphylococcus aureus (GC 4541), 18 hours at 35° C.) | MIC Staphylococcus aureus (GC 4542) (Staphylococcus sp.; Staphylococcus aureus (GC 4542), 18 hours at 35° C.) | MIC Staphylococcus aureus (GC 4544) (Staphylococcus sp.; Staphylococcus aureus (GC 4544), 18 hours at 35° C.) | MIC Staphylococcus aureus (GC 4545) (Staphylococcus sp.; Staphylococcus aureus (GC 4545), 18 hours at 35° C.) | MIC Staphylococcus aureus-SMITH (GC 4543) (Staphylococcus sp.; Staphylococcus aureus-SMITH (GC 4543), 18 hours at 35° C.) | MIC Staphylococcus haemolyticus (GC 4546) (Staphylococcus sp.; Staphylococcus haemolyticus (GC 4546), 18 hours at 35° C.) | MIC Escherichia coli (GC 4560) (Escherichia coli) | MIC Enterococcus faecalis (ATCC 29212) (Enterococcus sp.; [7]) | MIC Enterococcus faecalis (GC 2242) (Enterococcus sp.; [8]) | MIC Enterococcus faecalis (GC 2691) (Enterococcus sp.; [9]) | MIC Enterococcus faecalis (GC 3059) (Enterococcus sp.; [10]) | MIC Enterococcus faecalis (GC 4552) (Enterococcus sp.; [11]) | MIC Enterococcus faecalis (GC 4553) (Enterococcus sp.; [12]) | MIC Enterococcus faecalis (GC 4554) (Enterococcus sp.; [13]) | MIC Enterococcus faecalis (GC 6189) (Enterococcus sp.; [14]) | MIC Enterococcus faecium (GC 2243) (Enterococcus sp.; Enterococcus faecium (GC 2243)) | MIC Enterococcus faecium (GC 4556) (Enterococcus sp.; Enterococcus faecium (GC 4556)) | MIC Enterococcus faecalis (GC 2242) (Enterococcus sp.; [6]) | MIC Enterococcus faecalis (GC 2691) (Enterococcus sp.; [6]) | MIC Enterococcus faecalis (GC 3059) (Enterococcus sp.; [6])

N=C1NCC(C(O)C2NC(=O)C(Cc3ccc(OC4OC(CO)C(OC5OC6COC(CCc7ccccc7)OC6C(O)C5O)C(O)C4O)cc3)NC(=O)C(CC3CCCCC3)NC(=O)CNC(=O)C(CO)NC(=O)C(C(O)C3CNC(=N)N3C3OC(CO)C(O)C(O)C3O)NC2=O)N1 (stereo not shown) [Example 198, Cyclo[3-cyclohexylalanyl-O-[4-O-[4,6-O-(3-phenylpropylidene)hexopyranosyl]hexopyranosyl]tyrosyl-3-(2-iminoimidazolidin-4-yl)seryl-3-(3-hexopyranosyl-2-iminoimidazolidin-4-yl)serylserylglycyl]]
<0.12 µg/mL: MIC Streptococcus agalactiae (GC 4564) (Streptococcus sp.; [1]) | MIC Streptococcus pneumoniae (ATCC 6301) (Streptococcus sp.; [2]) | MIC Streptococcus pneumoniae (GC 1894) (Streptococcus sp.; [3]) | MIC Streptococcus pneumoniae (GC 4565) (Streptococcus sp.; [4]) | MIC Streptococcus pyogenes (GC 4563) (Streptococcus sp.; [5]) | MIC Streptococcus agalactiae (GC 4564) (Streptococcus sp.; [6]) | MIC Streptococcus pneumoniae (ATCC 6301) (Streptococcus sp.; [6]) | MIC Streptococcus pneumoniae (GC 1894) (Streptococcus sp.; [6]) | MIC Streptococcus pneumoniae (GC 4565) (Streptococcus sp.; [6]) | MIC Streptococcus pyogenes (GC 4563) (Streptococcus sp.; [6])
0.5 µg/mL: MIC Staphylococcus aureus (ATCC 29213) (Staphylococcus sp.; strain ATCC 29213) | MIC Staphylococcus aureus (GC 3051) (Staphylococcus sp.; strain GC 3051) | MIC Staphylococcus aureus (GC 3053) (Staphylococcus sp.; strain GC 3053) | MIC Staphylococcus aureus (GC 4541) (Staphylococcus sp.; strain GC 4541) | MIC Staphylococcus aureus-SMITH (GC 4543) (Staphylococcus sp.; strain GC 4543) | MIC Staphylococcus aureus (GC 4544) (Staphylococcus sp.; strain GC 4544) | MIC Staphylococcus aureus (GC 4545) (Staphylococcus sp.; strain GC 4545) | MIC Staphylococcus haemolyticus (GC 4546) (Staphylococcus sp.; strain GC 4546) | MIC Coagulase Negative Staphylococcus (GC 4549) (Staphylococcus sp.; strain GC 4549) | MIC Coagulase Negative Staphylococcus (GC 4551) (Staphylococcus sp.; strain GC 4551)
0.25 µg/mL: MIC Staphylococcus aureus (GC 4542) (Staphylococcus sp.; strain GC 4542)
1 µg/mL: MIC Staphylococcus aureus (GC 1131) (Staphylococcus sp.; strain GC 1131) | MIC Coagulase Negative Staphylococcus (GC 4547) (Staphylococcus sp.; strain GC 4547) | MIC Escherichia coli (GC 4560) (Escherichia coli) | MIC Enterococcus avium (GC 4558) (Enterococcus sp.; Enterococcus avium (GC 4558)) | MIC Enterococcus faecalis (ATCC 29212) (Enterococcus sp.; [7]) | MIC Enterococcus faecalis (GC 2242) (Enterococcus sp.; [8]) | MIC Enterococcus faecalis (GC 2691) (Enterococcus sp.; [9]) | MIC Enterococcus faecalis (GC 3059) (Enterococcus sp.; [10]) | MIC Enterococcus faecalis (GC 4552) (Enterococcus sp.; [11]) | MIC Enterococcus faecalis (GC 4553) (Enterococcus sp.; [12]) | MIC Enterococcus faecalis (GC 4554) (Enterococcus sp.; [13]) | MIC Enterococcus faecalis (GC 6189) (Enterococcus sp.; [14]) | MIC Enterococcus faecium (GC 2243) (Enterococcus sp.; Enterococcus faecium (GC 2243)) | MIC Enterococcus faecium (GC 4556) (Enterococcus sp.; Enterococcus faecium (GC 4556)) | MIC Enterococcus faecium (GC 4557) (Enterococcus sp.; Enterococcus faecium (GC 4557)) | MIC Enterococcus avium (GC 4558) (Enterococcus sp.; [6]) | MIC Enterococcus faecalis (ATCC 29212) (Enterococcus sp.; [6]) | MIC Enterococcus faecalis (GC 2242) (Enterococcus sp.; [6]) | MIC Enterococcus faecalis (GC 2691) (Enterococcus sp.; [6]) | MIC Enterococcus faecalis (GC 3059) (Enterococcus sp.; [6]) | MIC Enterococcus faecalis (GC 4552) (Enterococcus sp.; [6]) | MIC Enterococcus faecalis (GC 4553) (Enterococcus sp.; [6]) | MIC Enterococcus faecalis (GC 4554) (Enterococcus sp.; [6]) | MIC Enterococcus faecalis (GC 6189) (Enterococcus sp.; [6]) | MIC Enterococcus faecium (GC 2243) (Enterococcus sp.; [6]) | MIC Enterococcus faecium (GC 4556) (Enterococcus sp.; [6]) | MIC Enterococcus faecium (GC 4557) (Enterococcus sp.; [6])
32 µg/mL: MIC Escherichia coli (ATCC 25922) (Escherichia coli) | MIC Escherichia coli (GC 4559) (Escherichia coli)
>0.12 µg/mL: MIC Coagulase Negative Staphylococcus (GC 4548) (Staphylococcus sp.; strain GC 4548)
